In brackets after ≈: the same amount, converted by molar mass. Values belong to the compound of their own block, whether it stands above or below them.
Key:
Experiment in all cases: ≥ marks a high value that may be exact or a test limit, other limits are often not marked, values filed in µg/mL are converted to µM
[1] = tested on: Pseudomonas aeruginosa PAO1
[2] = tested on: Bacillus subtilis VKM B-501
[3] = tested on: Staphylococcus xylosus DSM 20267
[4] = tested on: Arthrobacter globiformis VKM Ac-1112
Escherichia coli MH1 = tested on: Escherichia coli MH1
[5] = tested on: Bacillus subtilis subsp. spizizenii DSM 347
[6] = tested on: Acinetobacter sp. DSM 586
[7] = tested on: Escherichia coli DH5alpha
[8] = tested on: Escherichia coli DSM 1116
[9] = tested on: Saccharomyces cerevisiae Y190
[10] = tested on: Saccharomyces cerevisiae ATCC 44774
[11] = tested on: Staphylococcus aureus ATCC 15752
[12] = tested on: Bacillus subtilis ATCC 62037
[13] = tested on: Streptococcus mutans ATCC 25175
[14] = tested on: Escherichia coli ATCC 27325
[15] = tested on: Salmonella enterica subsp. enterica serovar Enteritidis ATCC 13076
[16] = tested on: Cryptococcus neoformans ATCC 34881
[17] = tested on: Pseudomonas putida ATCC 17426
[18] = tested on: Candida albicans ATCC 10231
[19] = tested on: Streptococcus pyogenes ATCC 21547
[20] = tested on: Pseudomonas aeruginosa ATCC 27853
[21] = tested on: Pseudomonas aeruginosa ATCC 15692
Staphylococcus capitis 1 = tested on: Staphylococcus capitis 1
[22] = tested on: Staphylococcus aureus Cowan 1
Escherichia coli D21 = tested on: Escherichia coli D21
[23] = tested on: Acinetobacter baumannii ATCC 19606
[24] = tested on: Schizosaccharomyces pombe
Acinetobacter junii RT-4 = tested on: Acinetobacter junii RT-4
[25] = tested on: Escherichia coli ATCC 25922
[26] = tested on: Yersinia pseudotuberculosis YPIII
[27] = tested on: Enterococcus faecalis ATCC 29212
[28] = tested on: Staphylococcus epidermidis ATCC 12228
[29] = tested on: Pseudomonas syringae pv. tabaci 1918NCPPB
Saccharomyces cerevisiae = tested on: Saccharomyces cerevisiae
[30] = tested on: Staphylococcus aureus ATCC 25923
Bacillus megaterium Bm11 = tested on: Bacillus megaterium Bm11
Pseudomonas aeruginosa = tested on: Pseudomonas aeruginosa
[31] = tested on: Enterococcus faecium ATCC 19434
Staphylococcus aureus = tested on: Staphylococcus aureus
Escherichia coli = tested on: Escherichia coli
Enterococcus faecium = tested on: Enterococcus faecium
[32] = tested on: Candida albicans ATCC 90028
[33] = tested on: Malassezia furfur KCTC 7744
[34] = tested on: Escherichia coli O157:H7 ATCC 43895
[35] = tested on: Aspergillus flavus KCTC 1375

- MIC [1]: > 35 µM
- MIC [2]: 1.1 µM (≈ 3.19 µg/mL)
- MIC [3]: 1.38 µM (≈ 4 µg/mL)
- MIC [4]: 0.3 µM (≈ 0.871 µg/mL)
- MIC (Escherichia coli MH1): 3.2 µM (≈ 9.29 µg/mL)
- MIC [5]: 2.76 µM (≈ 8 µg/mL)
- MIC [6]: 2.76 µM (≈ 8 µg/mL)
- MIC [7]: 4.5 µM (≈ 13.1 µg/mL)
- MIC [8]: 11 µM (≈ 32 µg/mL)
- MIC [9]: 18 µM (≈ 52.2 µg/mL)
Structure (SMILES): CC[C@H](C)[C@H](NC(=O)[C@H](Cc1ccc(O)cc1)NC(=O)[C@H](CCC(N)=O)NC(=O)[C@H](CCCCN)NC(=O)[C@H](CC(C)C)NC(=O)[C@H](CCCCN)NC(=O)[C@H](CCC(=O)O)NC(=O)CNC(=O)[C@H](CCSC)NC(=O)[C@H](CO)NC(=O)[C@H](CCCCN)NC(=O)[C@H](Cc1ccccc1)NC(=O)[C@H](CCCCN)NC(=O)[C@H](CC(=O)O)NC(=O)[C@H](CCCCN)NC(=O)[C@H](CC(C)C)NC(=O)CN)C(=O)N[C@@H](CCC(N)=O)C(=O)N[C@H](C(=O)N[C@@H](Cc1c[nH]c2ccccc12)C(=O)N[C@@H](CCCCN)C(=O)N[C@@H](C)C(=O)N[C@@H](CCCCN)C(=O)N[C@@H](Cc1ccccc1)C(N)=O)[C@@H](C)O [GLKDKFKSMGEKLKQYIQTWKAKF]

- MIC [10]: 0.268 µM (≈ 0.707 µg/mL)
- MIC [11]: 0.535 µM (≈ 1.41 µg/mL)
- MIC [12]: 0.535 µM (≈ 1.41 µg/mL)
- MIC [13]: 0.535 µM (≈ 1.41 µg/mL)
- MIC [14]: 0.268 µM (≈ 0.707 µg/mL)
- MIC [15]: 0.535 µM (≈ 1.41 µg/mL)
- MIC [16]: 0.379 µM (≈ 1 µg/mL)
- MIC [17]: 0.379 µM (≈ 1 µg/mL)
- MIC [18]: 0.379 µM (≈ 1 µg/mL)
Structure (SMILES): CC[C@H](C)[C@H](NC(=O)[C@@H]1CCCN1C(=O)[C@H](Cc1c[nH]c2ccccc12)NC(=O)[C@H](CCC(N)=O)NC(=O)[C@H](CCCN=C(N)N)NC(=O)[C@@H](NC(=O)[C@@H](NC(=O)[C@@H](N)CCCN=C(N)N)C(C)C)C(C)C)C(=O)NCC(=O)N[C@@H](CCCN=C(N)N)C(=O)N[C@H](C(=O)N[C@H](C(=O)N[C@@H](CCCN=C(N)N)C(=O)N[C@@H](CCCN=C(N)N)C(=O)N[C@H](C(=O)N[C@H](C(=O)N[C@@H](CCCN=C(N)N)C(=O)N[C@@H](CCCN=C(N)N)C(=O)N[C@H](C(=O)N[C@H](C(=O)N[C@@H](CCCN=C(N)N)C(=O)O)C(C)C)C(C)C)C(C)C)C(C)C)C(C)C)C(C)C [RVVRQWPIGRVVRRVVRRVVR]

- MIC [19]: 6 µM (≈ 9.65 µg/mL)
- MIC [20]: > 48 µM
- MIC [21]: 24 µM (≈ 38.6 µg/mL)
- MIC (Staphylococcus capitis 1): 1.5 µM (≈ 2.41 µg/mL)
- MIC [22]: 1.5 µM (≈ 2.41 µg/mL)
- MIC (Escherichia coli D21): 12 µM (≈ 19.3 µg/mL)
- MIC [23]: 6 µM (≈ 9.65 µg/mL)
- MIC [24]: 3 µM (≈ 4.83 µg/mL)
- MIC (Acinetobacter junii RT-4): 6 µM (≈ 9.65 µg/mL)
- MIC [25]: 24 µM (≈ 38.6 µg/mL)
- MIC [26]: 3 µM (≈ 4.83 µg/mL)
- MIC [27]: 6 µM (≈ 9.65 µg/mL)
- MIC [28]: 1.5 µM (≈ 2.41 µg/mL)
- MIC [29]: 6 µM (≈ 9.65 µg/mL)
- MIC (Saccharomyces cerevisiae): 6 µM (≈ 9.65 µg/mL)
- MIC [30]: 3 µM (≈ 4.83 µg/mL)
- MIC [18]: 6 µM (≈ 9.65 µg/mL)
- MIC (Bacillus megaterium Bm11): 1.5 µM (≈ 2.41 µg/mL)
Structure (SMILES): CC[C@H](C)[C@H](NC(=O)[C@H](CCCN=C(N)N)NC(=O)CNC(=O)[C@H](CC(C)C)NC(=O)[C@H](Cc1ccccc1)NC(=O)[C@H](CCCCN)NC(=O)[C@H](CO)NC(=O)[C@H](Cc1ccccc1)NC(=O)[C@H](Cc1c[nH]c2ccccc12)NC(=O)[C@@H]1CCCN1C(=O)[C@@H](NC(=O)[C@@H](N)Cc1ccccc1)C(C)C)C(=O)N[C@@H](CC(C)C)C(N)=O [FVPWFSKFLGRIL]

- MIC (Pseudomonas aeruginosa): 10 µM (≈ 23 µg/mL)
- MIC [31]: 10 µM (≈ 23 µg/mL)
- MIC [20]: 7.07 µM (≈ 16.2 µg/mL)
- MIC (Staphylococcus aureus): 7.07 µM (≈ 16.2 µg/mL)
- MIC (Escherichia coli): 7.07 µM (≈ 16.2 µg/mL)
- MIC (Enterococcus faecium): 7.07 µM (≈ 16.2 µg/mL)
- MIC [32]: 10 µM (≈ 23 µg/mL)
- MIC [33]: 10 µM (≈ 23 µg/mL)
- MIC [30]: 10 µM (≈ 23 µg/mL)
- MIC [34]: 7.07 µM (≈ 16.2 µg/mL)
- MIC [35]: 10 µM (≈ 23 µg/mL)
Structure (SMILES): CC(C)C[C@H](NC(=O)[C@H](C)NC(=O)[C@H](C)NC(=O)[C@H](CCCCN)NC(=O)CNC(=O)[C@@H](NC(=O)[C@H](Cc1cnc[nH]1)NC(=O)[C@H](CCCCN)NC(=O)CNC(=O)[C@@H](NC(=O)[C@H](Cc1cnc[nH]1)NC(=O)[C@H](C)NC(=O)[C@H](C)NC(=O)[C@H](CCCCN)NC(=O)[C@H](CCCCN)NC(=O)[C@H](Cc1ccccc1)NC(=O)[C@H](Cc1ccccc1)NC(=O)[C@H](CO)NC(=O)CNC(=O)[C@H](Cc1c[nH]c2ccccc12)NC(=O)CN)C(C)C)C(C)C)C(=O)N[C@H](C(N)=O)[C@@H](C)O [GWGSFFKKAAHVGKHVGKAALT]
